# Laboratory results published in patent US10508085B2, “Compounds and methods for IDO and TDO modulation, and indications therefor” (Plexxikon Inc., priority 2016, dated 2019).
# Where two headings read alike, the source gives them in different places.
# Legend:
# [1] = target: T1, Human Indoleamine 2,3-dioxygenase (IDO) (Homo sapiens, UniProt P14902); experiment: Human IDO enzymatic assay (kynurenine level); type: biochemical; conditions: 6 nM IDO, 10 μM L-Trp; geometric mean; read-out: IDO1 GMean: IC50 (μM) (Biochemical Assay)
# T1 construct: His tag (N); made in house; host or cells: E. coli
# T1 sequence (P14902 whole entry): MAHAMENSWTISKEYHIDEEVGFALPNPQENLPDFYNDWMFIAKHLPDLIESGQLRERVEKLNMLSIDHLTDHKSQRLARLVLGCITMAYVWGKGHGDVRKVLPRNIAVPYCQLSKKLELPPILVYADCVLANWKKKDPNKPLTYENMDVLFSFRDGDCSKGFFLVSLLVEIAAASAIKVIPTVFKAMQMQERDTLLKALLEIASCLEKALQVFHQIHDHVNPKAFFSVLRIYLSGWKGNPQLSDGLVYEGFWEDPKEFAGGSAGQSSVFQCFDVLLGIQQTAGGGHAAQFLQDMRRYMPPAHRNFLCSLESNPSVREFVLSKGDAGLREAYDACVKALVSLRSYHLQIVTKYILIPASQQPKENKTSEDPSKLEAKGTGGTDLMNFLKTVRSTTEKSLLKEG
# Summary of the method: (§1)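 N-His human IDO (6 nM, 10 μM L-Trp, 5 μM methylene blue, 20 min) or TDO (1 nM, 350 μM L-Trp, 0.4 μM methylene blue, 70 min) run at room temp in pH 6.5 phosphate with ascorbate, catalase, Tween 20. TCA stop, 30 min 50 °C converts N-formylkynurenine to kynurenine; IC50 by nonlinear regression.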
# [2] = target: T2, Human Tryptophan 2,3-dioxygenase (TDO) (Homo sapiens, UniProt P48775); experiment: Human TDO enzymatic assay (kynurenine level); type: biochemical; conditions: 1 nM TDO, 350 μM L-Trp; geometric mean; read-out: TDO GMean: IC50 (μM) (Biochemical Assay)
# T2 construct: His tag (N); made in house; host or cells: E. coli
# T2 sequence (P48775 whole entry): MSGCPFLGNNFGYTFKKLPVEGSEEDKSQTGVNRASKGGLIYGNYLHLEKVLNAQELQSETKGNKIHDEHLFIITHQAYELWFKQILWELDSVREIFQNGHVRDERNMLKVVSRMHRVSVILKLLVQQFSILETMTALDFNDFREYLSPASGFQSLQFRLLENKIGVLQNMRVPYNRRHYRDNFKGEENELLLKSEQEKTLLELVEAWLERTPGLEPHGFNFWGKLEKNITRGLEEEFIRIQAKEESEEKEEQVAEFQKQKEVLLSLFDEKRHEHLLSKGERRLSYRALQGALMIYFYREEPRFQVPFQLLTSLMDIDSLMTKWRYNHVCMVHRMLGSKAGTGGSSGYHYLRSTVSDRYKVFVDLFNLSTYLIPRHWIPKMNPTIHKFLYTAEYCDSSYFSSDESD
# Summary of the method: as §1
# [3] = target: T3, human IDO (IDO1-expressing HEK293 cells) (Homo sapiens, UniProt P14902); experiment: Cell based kynurenine assay, IDO1-expressing HEK293 cell clones; conditions: IDO1-expressing HEK293 cells, geometric mean, read-out: HEK293 IDO1 Kynurenine GMean IC50 (μM) (Cellular Assay)
# T3 construct: expressed in transfected cells
# T3 sequence (P14902 whole entry): as the sequence (P14902 whole entry) above
# Summary of the method: (§2)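 HEK293 stable clones (hIDO1 or hTDO, CMV-driven; G418-selected); 2.5×10^4 cells/well; compound serial dilution, 24 h, 37 °C, 5% CO2; supernatant kynurenine; IC50 by nonlinear fit.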
# [4] = target: T4, human TDO (TDO-expressing HEK293 cells) (Homo sapiens, UniProt P48775); experiment: Cell based kynurenine assay, TDO-expressing HEK293 cell clones; conditions: TDO-expressing HEK293 cells, geometric mean, read-out: HEK293 TDO Kynurenine GMean IC50 (μM) (Cellular Assay)
# T4 construct: expressed in transfected cells
# T4 sequence (P48775 whole entry): as the sequence (P48775 whole entry) above
# Summary of the method: as §2
SMILES,IC50 [1],IC50 [2],IC50 ([3]; 24 hours incubation),IC50 ([4]; 24 hours incubation),IC50 ([3]; 24 hours),IC50 ([4]; 24 hours)
"CC(=O)N1CCC(C(F)(F)C(O)c2cc(Cl)cc3cn[nH]c23)CC1 (stereo not drawn) [Compound P-0295, 1-(4-(2-(5-chloro-1H-indazol-7-yl)-1,1-difluoro-2-hydroxyethyl)piperidin-1-yl)ethan-1-one]",0.0001 to 10 µM,0.0001 to 10 µM,0.0001 to 10 µM,0.0001 to 10 µM,,
"CC(=O)N1CCC(C2(C(O)c3c(F)c(Cl)cc4cn[nH]c34)CC2)CC1 (stereo not drawn) [Compound P-0159, 1-(4-(1-((5-chloro-6-fluoro-1H-indazol-7-yl)(hydroxy)methyl)cyclopropyl)piperidin-1-yl)ethan-l-one]",0.0001 to 10 µM,0.0001 to 10 µM,0.0001 to 10 µM,0.0001 to 10 µM,,
"CS(=O)(=O)N1CCC(C(F)(F)C(O)c2c(F)c(Cl)cc3cn[nH]c23)CC1 (stereo not drawn) [Compound P-0288, 1-(5-chloro-6-fluoro-1H-indazol-7-yl)-2,2-difluoro-2-(1-(methylsulfonyl)piperidin-4-yl)ethan-1-ol]",0.0001 to 10 µM,0.0001 to 10 µM,0.0001 to 10 µM,0.0001 to 10 µM,,
"CC(C)(C1CCN(C(=O)Nc2ccc(F)nc2)CC1)[C@H](O)c1cc(Cl)cc2cn[nH]c12 [Compound P-0559, (S)-4-(1-(5-chloro-1H-indazol-7-yl)-1-hydroxy-2-methylpropan-2-yl)-N-(6-fluoropyridin-3-yl)piperidine-1-carboxamide]",0.0001 to 10 µM,0.0001 to 10 µM,,,0.0001 to 10 µM,0.0001 to 10 µM
"OC1(c2cc(Cl)cc3[nH]ncc23)CC2(CCOCC2)C1 [Compound P-0372, 2-(6-chloro-1H-indazol-4-yl)-7-oxaspiro[3.5] nonan-2-ol]",> 200 µM,0.0001 to 10 µM,0.0001 to 10 µM,> 10 µM,,
"OC1(c2cc(Cl)cc3[nH]ncc23)CC2(CCCCC2)C1 [Compound P-0371, 2-(6-chloro-1H-indazol-4-yl)spiro[3.5] nonan-2-ol]",10 to 100 µM,0.0001 to 10 µM,> 10 µM,0.0001 to 10 µM,,
"CC(F)(F)C1(C(C)(F)F)CC(O)(c2cc(Cl)cc3cn[nH]c23)C1 [Compound P-0222, 1-(5-chloro-1H-indazol-7-yl)-3,3-bis(1,1-difluoroethyl)cyclobutan-1-ol]",0.0001 to 10 µM,0.0001 to 10 µM,0.0001 to 10 µM,0.0001 to 10 µM,,
"OC(c1cc(Cl)cc2cn[nH]c12)C1(F)CCC(F)(F)CC1 (stereo not drawn) [Compound P-0033, (5-chloro-1H-indazol-7-yl)(1,4,4-trifluorocyclohexyl)methanol]",0.0001 to 10 µM,0.0001 to 10 µM,0.0001 to 10 µM,0.0001 to 10 µM,,
"CC(C)(C)OC(=O)N1CCC(C(O)c2cccc3cncn23)CC1 (stereo not drawn) [Compound P-0076, tert-butyl 4-(hydroxy(imidazo[1,5-a]pyridin-5-yl)methyl)piperidine-1-carboxylate]",10 to 100 µM,0.0001 to 10 µM,> 10 µM,> 10 µM,,
"CC(C)(C1CCN(C(=O)NC2CCC2)CC1)[C@H](O)c1cc(Cl)cc2cn[nH]c12 [Compound P-0552, (S)-4-(1-(5-chloro-1H-indazol-7-yl)-1-hydroxy-2-methylpropan-2-yl)-N-cyclobutylpiperidine-1-carboxamide]",0.0001 to 10 µM,0.0001 to 10 µM,,,0.0001 to 10 µM,0.0001 to 10 µM
"CC(C)(C1CCN(C(=O)C2CC2)CC1)C(O)c1cc(Cl)cc2cn[nH]c12 (stereo not drawn) [Compound P-0312, (4-(1-(5-chloro-1H-indazol-7-yl)-1-hydroxy-2-methylpropan-2-yl)piperidin-1-yl)(cyclopropyl) methanone]",0.0001 to 10 µM,0.0001 to 10 µM,0.0001 to 10 µM,0.0001 to 10 µM,,
"CC(C)(C1CCN(C(=O)Nc2ccccc2C(F)(F)F)CC1)[C@@H](O)c1cc(Cl)cc2cn[nH]c12 [Compound P-0437, (R)-4-(1-(5-chloro-1H-indazol-7-yl)-1-hydroxy-2-methylpropan-2-yl)-N-(2-(trifluoromethyl)phenyl)piperidine-1-carboxamide]",0.0001 to 10 µM,0.0001 to 10 µM,,,> 10 µM,> 10 µM
"CCOC(=O)NC(=O)N1CCC(C(C)(C)C(O)c2cc(Cl)cc3cn[nH]c23)CC1 (stereo not drawn) [Compound P-0405, ethyl (4-(1-(5-chloro-1H-indazol-7-yl)-1-hydroxy-2-methylpropan-2-yl)piperidine-1-carbonyl)carbamate]",0.0001 to 10 µM,0.0001 to 10 µM,0.0001 to 10 µM,0.0001 to 10 µM,,
"O=C(Nc1cccc(Cl)c1)N1CCC(C(F)(F)C(O)c2cc(Cl)cc3cn[nH]c23)CC1 (stereo not drawn) [Compound P-0488, 4-(2-(5-chloro-1H-indazol-7-yl)-1,1-difluoro-2-hydroxyethyl)-N-(3-chlorophenyl) piperidine-1-carboxamide]",0.0001 to 10 µM,0.0001 to 10 µM,,,0.0001 to 10 µM,0.0001 to 10 µM
"CC(C)(C1CCN(C(=O)NC2CC2)CC1)[C@H](O)c1c(F)c(Cl)cc2cn[nH]c12 [Compound P-0509, (S)-4-(1-(5-chloro-6-fluoro-1H-indazol-7-yl)-1-hydroxy-2-methylpropan-2-yl)-N-cyclopropylpiperidine-1-carboxamide]",0.0001 to 10 µM,0.0001 to 10 µM,,,0.0001 to 10 µM,0.0001 to 10 µM
"CC(C)(C1CCN(C(=O)c2ccccc2C(F)(F)F)CC1)C(O)c1cc(Cl)cc2cn[nH]c12 (stereo not drawn) [Compound P-0366, (4-(1-(5-chloro-1H-indazol-7-yl)-1-hydroxy-2-methylpropan-2-yl)piperidin-1-yl)(2-(trifluoromethyl)phenyl)methanone]",0.0001 to 10 µM,0.0001 to 10 µM,0.0001 to 10 µM,0.0001 to 10 µM,,
"CC(=O)N1CC2CCC(C1)C2CC(O)c1cc(Cl)cc2cn[nH]c12 (stereo not drawn) [Compound P-0281, 1-(8-(2-(5-chloro-1H-indazol-7-yl)-2-hydroxyethyl)-3-azabicyclo[3.2.1]octan-3-yl)ethan-1-one]",0.0001 to 10 µM,0.0001 to 10 µM,0.0001 to 10 µM,0.0001 to 10 µM,,
"CS(=O)(=O)N1C2CCC1CN(c1cc(Cl)cc3cn[nH]c13)C2 [Compound P-0093, 5-chloro-7-(8-(methylsulfonyl)-3,8-diazabicyclo[3.2.1]octan-3-yl)-1H-indazole]",0.0001 to 10 µM,0.0001 to 10 µM,0.0001 to 10 µM,0.0001 to 10 µM,,
"Cc1cc(N2CCN(S(C)(=O)=O)C(C)(C)C2)c2[nH]ncc2c1 [Compound P-0090, 7-(3,3-dimethyl-4-(methylsulfonyl)piperazin-1-yl)-5-methyl-1H-indazole]",0.0001 to 10 µM,0.0001 to 10 µM,0.0001 to 10 µM,0.0001 to 10 µM,,
"CC1(C(O)c2cc(Cl)cc3cncn23)CCCCC1 (stereo not drawn) [Compound P-0083, (7-Chloroimidazo[1,5-a]pyridin-5-yl)(1-methylcyclohexyl)methanol]",0.0001 to 10 µM,0.0001 to 10 µM,0.0001 to 10 µM,0.0001 to 10 µM,,
"CS(=O)(=O)N1C[C@H]2CC[C@@H](C1)[C@@H]2C(F)(F)C(O)c1cc(Cl)cc2cn[nH]c12 (stereo partly drawn) [Compound P-0132, 1-(5-chloro-1H-indazol-7-yl)-2,2-difluoro-2-((1R,5S,8r)-3-(methylsulfonyl)-3-azabicyclo[3.2.l]octan-8-yl)ethan-l-ol]",0.0001 to 10 µM,0.0001 to 10 µM,0.0001 to 10 µM,0.0001 to 10 µM,,
